Experimental data taken from patent publication US12286418B2, “Compounds and methods for treating or preventing bacterial infections” (priority 2019, dated 2025).
Entries after “also recorded” stand apart in the source; their conditions may differ. Like-named read-outs stand apart in the source and are kept apart here.

Tests used:
OXA-58 = biological target: T1, OXA-58 (Acinetobacter baumannii, UniProt Q2TR58); experiment: Inhibition of other OXA enzymes (nitrocefin reporter): OXA-58; type: biochemical
T1 construct: His-tag (N, cleaved yes); made in house; host or cells: E. coli BL21 (DE3), pET28a
T1 sequence (Q2TR58 19-280): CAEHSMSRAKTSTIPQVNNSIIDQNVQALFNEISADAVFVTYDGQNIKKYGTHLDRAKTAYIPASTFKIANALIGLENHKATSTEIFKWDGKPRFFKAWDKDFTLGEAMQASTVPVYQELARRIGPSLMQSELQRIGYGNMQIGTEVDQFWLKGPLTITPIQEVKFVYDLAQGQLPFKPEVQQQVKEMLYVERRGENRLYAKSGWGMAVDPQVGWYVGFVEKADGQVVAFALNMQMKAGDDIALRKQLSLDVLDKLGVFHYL
Description: Compounds were tested for inhibition of a given OXA enzyme from hydrolyzing nitrocefin using a Tecan plate reader. […] A control with no compound was included in each run. For each compound concentration, the velocity of nitrocefin hydrolysis was determined at 482 nm and fit to the Morrison equation. […] The average Ki of separate experiments, each of which consisted of duplicate runs, is reported and error was quantified as the standard deviation.
The high sequence diversity of class D β-lactamases has made it difficult to find a class-wide inhibitor. The inhibition activity of CDD-97 was tested against other OXA-enzymes of varying sequence identity, to assess its spectrum of activity (Table 2). OXA-10 is regarded as the canonical OXA, however it is not a major clinical threat as it mainly hydrolyzes penicillins. OXA-58 is another carbapenemase unable to hydrolyze extended-spectrum cephalosporins like OXA-48. Both OXA-48 and OXA-58 are predominantly found in gram-negative bacteria, however OXA-48 is prevalent in the Enterobacteriaceae family (mainly Klebsiella pneumoniae), while OXA-58 is found in the Moraxellaceae family (mainly Acintobacter baumannii). While K. pneumoniae is more rampant in the clinics and most OXA-mediated carbapenem is due to OXA-48, A. baumannii nosocomial infections are a growing issue. OXA-163 is an OXA-48 like enzyme also prevalent in Enterobacteriaceae. […]

E. coli MG1655OXA-48 = experiment: Bacterial susceptibility (MIC, broth microdilution) of E. coli expressing OXA-48; type: cell-based; settings: for MIC: Escherichia coli
Description: Bacterial susceptibility was specifically tested using minimum inhibitory concentration assays. Susceptibility assays were performed with E. coli strains using broth in a microplate set up. Two-fold dilutions of antibiotic and/or inhibitor were used. For susceptibility tests, bacterial strains were transformed with plasmids containing OXA-48 with its endogenous signal sequence for periplasmic migration (cloned into pTP123 vector) (Majiduddin & Palzkill, 2003, Antimicrob. Agents Chemother. 47:1062-1067). pTP123 was cut with XbaI and SacI and the linearized fragment was assembled using Gibson assembly (New England Biolabs, Ipswich, MA) its signal sequence cloned in by using Gibson assembly. Bacteria were grown in Mueller-Hinton broth with 12.5 μg/mL chloramphenicol (plasmid marker) overnight. An overnight culture was diluted 1:10^4 into the final well solutions (100 uL total) and incubated for 16-18 hours. After incubation, microplates were read using a Tecan plate reader at absorbance 600. Growth was objectively defined as yielding an absorbance ≥2 times the absorbance of the negative control (media and no culture). Experiments were repeated with new bacterial inoculums each time.
Effective β-lactamase inhibitors synergize with β-lactam antibiotics and ultimately lower the minimum inhibitory concentration (MIC) of antibiotic needed to kill the bacteria. MIC studies were performed with ampicillin (AMP), a β-lactam antibiotic readily hydrolyzed by OXA-48, against E. coli strain MG1655 expressing OXA-48 (MG1655OXA-48). The OXA-48 plasmid construct contained the endogenous signal sequence of OXA-48 for secretion to the periplasm, which was expressed under a trc-promoter, allowing leaky expression in the absence of IPTG inducer. All MICs were performed by broth microdilution with 2-fold dilutions of antibiotic and/or inhibitor (FIG. 6A). The ampicillin (AMP) and imipenem (IMP) MICs were separately determined for a range of CDD-97 and avibactam concentrations. […] In the absence of bacteria, the media (Mueller Hinton) gives an absorbance reading of 0.04 so absorbance readings greater than or equal to two-fold the control were considered bacterial growth. […] CDD-97 was tested for its synergistic ability by determining AMP MICs with a range of CDD-97 concentrations (up to 256 μg/ml).
Impermeability of the outer membrane to small molecules is a major challenge for the development of therapeutics for Gram-negative bacterial infections. β-lactamases, including OXA-48, reside in the periplasmic space and so inhibitors must traverse the outer membrane to be effective. To determine whether low permeability caused the poor in vivo activity of CDD-97, an accumulation assay (Richter, et al., 2017, Nature 545:299-304) was performed to quantify the amount of CDD-97 present in E. coli cells after incubation. In the assay, tetracycline was used as a positive control while fusidic acid and clindamycin were used as negative controls (Richter, et al., 2017, Nature 545:299-304). Controls and CDD-97 were separately incubated with wildtype E. coli (MG1655) cells and then these cells were centrifuged through silicone oil to separate free, unaccumulated compound from the cell pellet. Cell lysates were collected by freeze-thawing and analyzed by mass spectrometry to quantify the amount of accumulated compound. Compared to tetracycline, CDD-97 was present in cells at 20-fold lower levels (FIG. 6B). […] The finding that CDD-97 accumulates inefficiently across the outer membrane was also examined by adding sub-lethal concentrations of colistin to the ampicillin/CDD-97 MIC assays. Colistin is known to disrupt the outer membrane and enhance permeability in E. coli. If the outer membrane is a barrier for CDD-97, it was predicted that the addition of sub-lethal concentrations of colistin would enhance the activity of CDD-97 against E. coli. […]

## CCOc1ccccc1N1CCN(c2ncnc(N3CCC(C(=O)O)CC3)n2)CC1 [CDD-97, 1-(4-(4-(2-ethoxyphenyl)piperazin-1-yl)-1,3,5-triazin-2-yl)piperidine-4-carboxylic acid]
OXA-58
  Ki: 45 ± 0.8 µM
OXA-58; OXA-58 vs OXA-48
  Ki fold less potent than against OXA-48: about 100 fold
E. coli MG1655OXA-48; E. coli expressing OXA-48, CDD-97 up to 256 μg/mL, avibactam up to 4 μg/mL
  synergy with β-lactam antibiotics (effect on AMP/IMP MIC) in words: did not synergize with ampicillin; also recorded: no synergy was seen between CDD-97 and imipenem; also recorded: colistin potentiates the activity of CDD-97; also recorded: synergizes weakly
E. coli MG1655OXA-48; MG1655OXA48, read-out: AMP MIC, with 4 μg/mL CDD-97
  MIC: 1020 µg/mL
E. coli MG1655OXA-48; MG1655OXA48, read-out: AMP MIC, with 8 μg/mL CDD-97
  MIC: 512 µg/mL
E. coli MG1655OXA-48; MG1655OXA48, read-out: AMP MIC, with 16 μg/mL CDD-97
  MIC: 512 µg/mL
E. coli MG1655OXA-48; MG1655OXA48, read-out: AMP MIC, with 32 μg/mL CDD-97
  MIC: 512 µg/mL
E. coli MG1655OXA-48; MG1655OXA48, read-out: AMP MIC, with 64 μg/mL CDD-97
  MIC: 512 µg/mL
E. coli MG1655OXA-48; MG1655OXA48, read-out: AMP MIC, with 128 μg/mL CDD-97
  MIC: 512 µg/mL
E. coli MG1655OXA-48; MG1655OXA48, read-out: AMP MIC, with 256 μg/mL CDD-97
  MIC: 512 µg/mL
E. coli MG1655OXA-48; MG1655OXA48, read-out: AMP MICs, (+) CDD-97 (16 μg/mL), colistin 0 μg/mL
  MIC: 1020 µg/mL
E. coli MG1655OXA-48; MG1655OXA48, read-out: AMP MICs, (+) CDD-97 (16 μg/mL), colistin 0.0625 μg/mL
  MIC: 512 µg/mL
E. coli MG1655OXA-48; MG1655OXA48, read-out: AMP MICs, (+) CDD-97 (16 μg/mL), colistin 0.125 μg/mL
  MIC: 1020 µg/mL
E. coli MG1655OXA-48; MG1655OXA48, read-out: AMP MICs, (+) CDD-97 (16 μg/mL), colistin 0.25 μg/mL
  MIC: 256 µg/mL
E. coli MG1655OXA-48; MG1655OXA48, read-out: AMP MICs, (+) CDD-97 (16 μg/mL), colistin 0.5 μg/mL
  MIC: 128 µg/mL
E. coli MG1655OXA-48; MG1655OXA48, read-out: AMP MICs, (+) CDD-97 (16 μg/mL), colistin 1 μg/mL
  MIC: 8 µg/mL
E. coli MG1655OXA-48; MG1655OXA48, read-out: IMP MIC, with 4 μg/mL CDD-97
  MIC: 0.625 µg/mL
E. coli MG1655OXA-48; MG1655OXA48, read-out: IMP MIC, with 8 μg/mL CDD-97
  MIC: 0.312 µg/mL
E. coli MG1655OXA-48; MG1655OXA48, read-out: IMP MIC, with 16 μg/mL CDD-97
  MIC: 0.312 µg/mL
E. coli MG1655OXA-48; MG1655OXA48, read-out: IMP MIC, with 32 μg/mL CDD-97
  MIC: 0.312 µg/mL
E. coli MG1655OXA-48; MG1655OXA48, read-out: IMP MIC, with 64 μg/mL CDD-97
  MIC: 0.312 µg/mL
E. coli MG1655OXA-48; MG1655OXA48, read-out: IMP MIC, with 128 μg/mL CDD-97
  MIC: 0.312 µg/mL
E. coli MG1655OXA-48; MG1655OXA48, read-out: IMP MIC, with 256 μg/mL CDD-97
  MIC: 0.625 µg/mL
